Experimental data reported in US12215085B2 (priority 2019, dated 2025).

Assay: Physical and chemical stability (XRPD, HPLC)
Format: physicochemical
Description: • (1) The physical and chemical stability evaluations were performed after Crystal Form A was placed in a closed condition at 80° C. for 24 hours. • (2) The physical and chemical stability evaluations were performed after Crystal Form A was placed in an open condition at 25° C./60% relative humidity and 40° C./75% relative humidity respectively for one week.
The physical and chemical stabilities of the samples were tested by XRPD and HPLC.

With `Nc1c2c(nc3c1CCCC3)CCCC2.O=C(O)CCC(=O)O` [Crystal Form A, 9-amino-1,2,3,4,5,6,7,8-octahydroacridine succinate] the “crystal form after storage (XRPD)” value (80° C. closed 24 hours, 25° C./60% relative humidity and 40° C./75% relative humidity open one week) was “unchanged” and the “chemical purity after storage (HPLC)” value (all three test conditions: 80° C. closed 24 hours, 25° C./60% RH and 40° C./75% RH open one week) was “unchanged”.
